Literature values, collected in patent US20120288450A1, “Chewing gum formula for enhancing psycho-spirituality” (priority 2009, published 2012).
Entries after “also recorded” stand apart in the source; their conditions may differ.

Legend:
[1] = in vivo
[2] = system: MK-801 receptor sites
[3] = biological target: T1, Monoamine Oxidase Type-B (MAO-B) (Homo sapiens, UniProt P27338)
T1 sequence (P27338 1-520): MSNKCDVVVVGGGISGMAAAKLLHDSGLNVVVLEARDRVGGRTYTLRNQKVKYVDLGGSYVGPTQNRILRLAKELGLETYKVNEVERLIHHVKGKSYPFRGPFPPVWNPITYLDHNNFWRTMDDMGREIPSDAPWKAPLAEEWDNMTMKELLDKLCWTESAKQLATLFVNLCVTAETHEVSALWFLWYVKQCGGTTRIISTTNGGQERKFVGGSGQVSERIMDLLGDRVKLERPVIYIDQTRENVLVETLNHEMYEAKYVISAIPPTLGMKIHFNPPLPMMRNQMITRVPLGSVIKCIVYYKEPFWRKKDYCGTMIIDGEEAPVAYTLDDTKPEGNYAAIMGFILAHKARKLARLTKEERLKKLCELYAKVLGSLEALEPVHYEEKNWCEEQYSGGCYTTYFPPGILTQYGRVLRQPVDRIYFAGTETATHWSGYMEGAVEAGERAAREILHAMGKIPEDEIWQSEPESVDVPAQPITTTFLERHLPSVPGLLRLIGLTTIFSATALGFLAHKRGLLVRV

[4] = in vivo; remark: listed apart in the source
[5] = system: dopamine in the nucleus accumbens; conditions: in vivo
[6] = system: various different bioreceptor sites; conditions: sites commonly effected by most other psychoactive compounds
[7] = ingested orally
[8] = biological target: anandamide (CB1) receptor (Homo sapiens, UniProt P21554)
anandamide (CB1) receptor, sequence (P21554 whole entry, species assumed): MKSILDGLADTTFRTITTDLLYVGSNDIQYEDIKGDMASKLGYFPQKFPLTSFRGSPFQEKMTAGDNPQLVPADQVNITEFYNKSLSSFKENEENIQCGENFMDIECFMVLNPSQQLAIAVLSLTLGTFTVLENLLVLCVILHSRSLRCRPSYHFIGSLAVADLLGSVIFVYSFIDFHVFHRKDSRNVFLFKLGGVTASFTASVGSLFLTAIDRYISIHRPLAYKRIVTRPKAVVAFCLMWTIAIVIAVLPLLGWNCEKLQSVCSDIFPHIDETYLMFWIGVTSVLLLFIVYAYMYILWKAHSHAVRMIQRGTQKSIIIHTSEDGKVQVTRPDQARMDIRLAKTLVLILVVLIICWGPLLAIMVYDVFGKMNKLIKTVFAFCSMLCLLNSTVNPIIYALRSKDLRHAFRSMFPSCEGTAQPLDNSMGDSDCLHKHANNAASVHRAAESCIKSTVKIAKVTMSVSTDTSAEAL

[9] = biological target: T2, Monoamine Oxidase Type-A (MAO-A) (Homo sapiens, UniProt P21397)
T2 sequence (P21397 1-527): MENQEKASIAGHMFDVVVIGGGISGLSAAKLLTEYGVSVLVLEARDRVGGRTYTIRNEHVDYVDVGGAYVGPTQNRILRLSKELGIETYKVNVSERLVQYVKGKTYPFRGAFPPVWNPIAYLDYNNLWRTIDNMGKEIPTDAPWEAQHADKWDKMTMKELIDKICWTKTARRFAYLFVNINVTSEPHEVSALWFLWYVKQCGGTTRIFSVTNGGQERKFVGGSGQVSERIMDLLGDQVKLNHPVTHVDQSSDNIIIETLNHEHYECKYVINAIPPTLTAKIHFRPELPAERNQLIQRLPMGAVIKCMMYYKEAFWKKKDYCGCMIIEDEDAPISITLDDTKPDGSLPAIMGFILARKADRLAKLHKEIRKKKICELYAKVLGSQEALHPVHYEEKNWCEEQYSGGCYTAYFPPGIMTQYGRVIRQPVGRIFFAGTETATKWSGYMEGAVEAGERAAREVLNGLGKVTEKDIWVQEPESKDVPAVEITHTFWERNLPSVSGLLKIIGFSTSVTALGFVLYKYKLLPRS

[10] = in vivo; remark: listed apart in the source
[11] = moisture, light, and radiation
[12] = in vivo; remark: listed apart in the source
[13] = mice

Row | Compound | psychoactive effect / activity [1] | active binding to the MK-801 receptor site [2] | inhibition of MAO-B enzyme [3] | toxicity [4] | release of dopamine in the nucleus accumbens [5] | competitive inhibition of reference target compounds at bioreceptor sites [6] | entry into the blood stream [7] | minimal dose [1] [mg] | active binding to the anandamide (CB1) receptor site [8] | inhibition of MAO-A enzyme [9] | effect on cocaine-produced drug seeking [10] | stability of potency [11] | habit forming / addictiveness [12] | solubility in acetone | solubility in water and saliva (when still embedded in the leaf) | anxiolytic and anti-depressant findings [13]
1 | COC(=O)[C@@H]1C[C@H](O)C(=O)[C@H]2[C@@]1(C)CC[C@H]1C(=O)O[C@H](c3ccoc3)C[C@]21C [Salvinorin “B”] | not known to induce psychoactive effect | – | – | – | – | – | – | – | – | – | – | – | – | – | – | –
2 | COC(=O)[C@@H]1C[C@H](OC(C)=O)C(=O)[C@H]2[C@@]1(C)CC[C@H]1C(=O)O[C@H](c3ccoc3)C[C@]21C [Salvinorin A] | – | nor has it shown any active binding | does not inhibit | almost entirely non-toxic; also recorded: ultra low toxicity | does not induce the release of dopamine | has not been shown to incur any significant, competitive inhibition | doesn't efficiently enter the blood stream | 0.2 | nor has it shown any active binding | does not inhibit | successful in decreasing the effect of cocaine-produced drug seeking | diminish the potency | non-habit forming and thus non-addictive | highly soluble | substantially water- and saliva-insoluble | anxiolytic and anti-depressant
